Laboratory results: paper PMC8991960, “A Bivalent Activatable Fluorescent Probe for Screening and Intravital Imaging of Chemotherapy‐Induced Cancer Cell Death” (Angewandte Chemie (International Ed. in English), 2021)

Columns and labels:
8 cancer cell lines = experiment: Classification of drugs by Apotracker Red (apoptosis) and CellTrace Violet (proliferation) staining; assay type: cell-based; settings: 8 cell lines, 24 h treatment, single-dose screen
Protocol: To corroborate the versatility of Apotracker Red, we built a screening platform including a total of 8 cancer cell lines of variable origin and pathogenesis: breast (MCF7, MDA‐MB231 and MMTV‐PyMT (mouse mammary tumour virus‐polyoma middle tumour‐antigen)[23]), lung (A549), prostate (PC3 and LnCap), blood cells (Jurkat) and colon (HT29). All cell lines were cultured under standard conditions and seeded with the fluorescent proliferation marker CellTrace^TM Violet (CV) in 96‐well plates (10–20×10^3 cells/well) for high‐throughput flow cytometry. After drug treatment (i.e., drug addition plus 24 h incubation), Apotracker Red was incubated for 10 min and fluorescence readings were directly acquired without any additional processing steps (Figure 3 a). […] Using this platform, we tested a collection of FDA‐approved drugs in all cancer cell lines and compared their ability to induce apoptosis using Apotracker Red as the reporter. Specifically, we included DNA alkylation agents (e.g., cyclophosphamide, cisplatin, 5‐fluorouracil, gemcitabine, temozolomide), proteasomal and mitotic inhibitors (e.g., bortezomib, docetaxel, paclitaxel) and antagonists of specific proteins (e.g., dexamethasone, tamoxifen; Figure 3 b).
First, all drugs were tested in the 8 different cell lines to determine the percentages of Apotracker Red‐stained apoptotic cells compared to no treatment (Figure 3 c; Figure S8). […] All 5 drugs were tested at multiple concentrations (from 1 to 100 μM) and with incubation times up to 48 h to examine whether drugs could block cell proliferation at late stages (Figures S9–S13).
Figure S8. Heatmap of relative inhibition of cell proliferation (as indicated by staining of CellTraceTM Violet) after treatment of cancer cell lines with different drugs. Data presented as an average of 3 independent experiments. Cells were stained on day 0 with CellTraceTM Violet (1 µM) and mean fluorescence intensities were determined on the 5L LSR after 24 h of treatment with the different drugs.
(1 picture or pasted object on this page, not shown here) […]
Cell culture. MCF-7, A549, LnCap, MDA-MB-231, Jurkat T cells and PC3 cells were obtained from American Type Culture Collection (ATCC). HT29 cells were purchased from Merck (S i g m a Aldrich, UK). Mouse Mammary Tumour Virus –Polyoma Middle T antigen (MMTV -PyMT) cells were provided by the lab of Mikala Egeblad (CSHL, US). MMTV-PyMT, MCF-7, LnCap, MDA-MB-231 and Jurkat T cells were cultured in Roswell Park Memorial Institute (RPMI) 1640 Medium supplemented with 10% fetal bovine serum (FBS) , 100 U mL-1 penicillin and 0.1 mg mL-1 streptomycin. A549 and PC3 cells were cultured in Dublecco’s modified Eagle’s medium (DMEM) supplemented with 10% fetal bovine serum (FBS), 100 U mL-1 penicillin and 0.1 mg […]
Flow cytometry drug screen.

[1] = system: MMTV-PyMT mammary gland tumours; experiment: Intravital imaging of cisplatin-induced apoptosis in breast cancer model; assay type: in vivo, mouse; settings: cisplatin 10 mg kg-1 i.p., Apotracker Red 650 ng i.v. 72 h later, two-photon microscopy, MMTV-PyMT;ACTB-ECFP mice
Excerpt: Optical intravital imaging is increasingly used for the preclinical evaluation of anticancer drugs in vivo. Although imaging modalities like computed tomography, positron emission tomography and magnetic resonance imaging can help to visualise whole intact organs in a non‐invasive manner,[26] they lack the spatiotemporal resolution needed to study dynamic interactions between individual tumour and stromal cells. This feature is critical to understand the mechanism of action of anticancer drugs and how they can affect interactions between cancer cells and immune cells in the tumour microenvironment.[27] Intravital imaging heavily relies on the acquisition of fluorescence signals using multiphoton microscopy, which provides cellular resolution with deep tissue penetration (≈500 μm) and minimal photodamage.[28] […] First, we analysed the chemical stability of Apotracker Red for in vivo studies by incubating the probe in mouse serum. […] When primary tumours measured around 0.5–1 cm in diameter, we administered cisplatin intraperitoneally (10 mg kg^−1). […]
were centrifuged (300 g, 5 min, r.t.), washed once with PBS before addition of 0.05% Trypsin, 0.02% ethylenediaminetetraacetic acid (EDTA) in Hank’s balanced salt solution (HBSS) and incubation at 37°C for 5 min. […] Histograms and mean fluorescence intensities of apoptotic cells were measured on a 5L LSR flow cytometer under the following […]

Question: `N.N.[Cl][Pt][Cl]` [cisplatin] was tested. Which “Drug group by Apotracker Red (apoptosis) and CV (proliferation) staining” value (8 cancer cell lines) did it give?
Answer: The value was “induced apoptosis and decreased cell proliferation”.

Question: What about the “Apotracker Red fluorescence in tumours of treated mice (intravital imaging)” value [1] of the same molecule?
Answer: The value was “strong red fluorescent signals indicating cancer cell death induced by the drug”.
